# Measured values published in patent US10294202B2, “Pyrrolidinones as herbicides” (FMC Corporation, priority 2013, dated 2019).
# Tests used:
# [1] = test system: rice; test: Test B flooded paddy test; type: in vivo, Oryza sativa; conditions: 500 g ai/ha, Flood; scale of 0 to 100 where 0 is no effect and 100 is complete control
# In short: (§1)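 Plants were grown to the 2-leaf stage, then pots were flooded to 3 cm above the soil and compound was applied directly into the paddy water, with that depth held throughout. After 13 to 15 days in a greenhouse, injury was rated visually against untreated controls on a 0 to 100 scale (100 = complete control).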
# [2] = test system: kochia; test: Test A pre-/postemergence herbicide test; type: in vivo, Kochia scoparia; conditions: for Plant response rating, Kochia: 0 to 100 scale
# In short: (§2)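 Planted in loam–sand blend; treated the same day preemergence by directed soil spray, while separately grown plants at one- to two-leaf stage got postemergence spray. Compared visually with untreated controls after approximately 10 days; 100 means complete control.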
# [3] = test system: galium; test: Test A postemergence herbicide test; type: in vivo, Galium aparine; conditions: for Plant response rating, Galium: 125 g ai/ha, 0 to 100 scale, 0 is no effect, 100 is complete control; for Galium plant response rating (0 to 100 scale, 0 is no effect, 100 is complete control): 500 g ai/ha
# In short: (§3)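 Injury was rated visually about 10 days after treatment on a 0 (no effect) to 100 (complete control) scale, compared with untreated plants. Test chemicals were sprayed postemergence onto greenhouse plants 2–10 cm high at one to two leaves, grown in a loam–sand blend.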
# [4] = test system: corn; test: Test A pre-/postemergence herbicide test; type: in vivo, Zea mays; conditions: Postemergence; for Plant response rating, Corn: 125 g ai/ha, 0 to 100 scale, 0 is no effect, 100 is complete control; for Corn plant response rating (0 to 100 scale, 0 is no effect, 100 is complete control): 500 g ai/ha
# In short: as §2
# [5] = test system: ryegrass, Italian; test: Test A pre-/postemergence herbicide test; type: in vivo, Lolium multiflorum; conditions: for Plant response rating, Ryegrass, Italian: 0 to 100 scale
# In short: as §2
# [6] = test system: ducksalad; test: Test B flooded paddy test; type: in vivo, Heteranthera limosa; conditions: 500 g ai/ha, Flood; scale of 0 to 100 where 0 is no effect and 100 is complete control
# In short: as §1
# [7] = test system: ragweed; test: Test A pre-/postemergence herbicide test; type: in vivo, Ambrosia elatior; conditions: for Plant response rating, Ragweed: 0 to 100 scale
# In short: as §2
# [8] = test system: giant foxtail; test: Test A pre-/postemergence herbicide test; type: in vivo, Setaria faberii; conditions: for Plant response rating, Foxtail, Giant: 0 to 100 scale
# In short: as §2
# [9] = test system: wheat; test: Test A pre-/postemergence herbicide test; type: in vivo, Triticum aestivum; conditions: Postemergence; for Plant response rating, Wheat: 125 g ai/ha, 0 to 100 scale, 0 is no effect, 100 is complete control; for Wheat plant response rating (0 to 100 scale, 0 is no effect, 100 is complete control): 500 g ai/ha
# In short: as §2
# [10] = test system: barnyardgrass; test: Test A pre-/postemergence herbicide test; type: in vivo, Echinochloa crus-galli; conditions: for Plant response rating, Barnyardgrass: 0 to 100 scale
# In short: as §2
# [11] = test system: pigweed; test: Test A pre-/postemergence herbicide test; type: in vivo, Amaranthus retroflexus; conditions: for Plant response rating, Pigweed: 0 to 100 scale
# In short: as §2
# [12] = test system: sedge, umbrella; test: Test B flooded paddy test; type: in vivo, Cyperus difformis; conditions: 500 g ai/ha, Flood; scale of 0 to 100 where 0 is no effect and 100 is complete control
# In short: as §1
# [13] = test system: blackgrass; test: Test A postemergence herbicide test; type: in vivo, Alopecurus myosuroides; conditions: for Plant response rating, Blackgrass: 125 g ai/ha, 0 to 100 scale, 0 is no effect, 100 is complete control; for Blackgrass plant response rating (0 to 100 scale, 0 is no effect, 100 is complete control): 500 g ai/ha
# In short: as §3
# [14] = test system: barnyardgrass; test: Test B flooded paddy test; type: in vivo, Echinochloa crus-galli; conditions: 500 g ai/ha, Flood; scale of 0 to 100 where 0 is no effect and 100 is complete control
# In short: as §1
# [15] = 125 g ai/ha, visual rating, 0 no effect, 100 complete control, approximately 10 days, preemergence
# [16] = Postemergence, 125 g ai/ha, 0 is no effect, 100 is complete control
# [17] = preemergence, 500 g ai/ha, 0 is no effect and 100 is complete control
SMILES,"Plant response rating, Rice [1]","Plant response rating, Kochia [2, 15]","Plant response rating, Kochia [2, 16]","Kochia plant response rating (0 to 100 scale, 0 is no effect, 100 is complete control) ([2]; Postemergence, 500 g ai/ha)","Plant response rating, Kochia [2, 17]","Plant response rating, Galium [3]","Galium plant response rating (0 to 100 scale, 0 is no effect, 100 is complete control) [3]","Plant response rating, Corn [4]","Corn plant response rating (0 to 100 scale, 0 is no effect, 100 is complete control) [4]","Plant response rating, Ryegrass, Italian [5, 15]","Plant response rating, Ryegrass, Italian [5, 16]","Ryegrass, Italian plant response rating (0 to 100 scale, 0 is no effect, 100 is complete control) ([5]; Postemergence, 500 g ai/ha)","Plant response rating, Ryegrass, Italian [5, 17]","Plant response rating, Ducksalad [6]","Plant response rating, Ragweed [7, 15]","Plant response rating, Ragweed [7, 16]","Ragweed plant response rating (0 to 100 scale, 0 is no effect, 100 is complete control) ([7]; Postemergence, 500 g ai/ha)","Plant response rating, Ragweed [7, 17]","Plant response rating, Foxtail, Giant [8, 15]","Plant response rating, Foxtail, Giant [8, 16]",also measured
O=C1NCC(c2ccc(Cl)cc2)C1C(=O)Nc1ccccc1Cl (stereo not drawn) [Compound 220],0,0,0,40,40,0,30,0,20,0,0,20,30,100,0,0,0,0,80,50,"Foxtail, Giant plant response rating (0 to 100 scale, 0 is no effect, 100 is complete control) ([8]; Postemergence, 500 g ai/ha): 80; Plant response rating, Foxtail, Giant [8, 17]: 90; Plant response rating, Wheat [9]: 0; Wheat plant response rating (0 to 100 scale, 0 is no effect, 100 is complete control) [9]: 20; Plant response rating, Barnyardgrass [10, 15]: 30; Plant response rating, Barnyardgrass [10, 16]: 40; Barnyardgrass plant response rating (0 to 100 scale, 0 is no effect, 100 is complete control) ([10]; Postemergence, 500 g ai/ha): 80; Plant response rating, Barnyardgrass [10, 17]: 80; Plant response rating, Pigweed [11, 15]: 0; Plant response rating, Pigweed [11, 16]: 0; Pigweed plant response rating (0 to 100 scale, 0 is no effect, 100 is complete control) ([11]; Postemergence, 500 g ai/ha): 0; Plant response rating, Pigweed [11, 17]: 20; Plant response rating, Sedge, Umbrella [12]: 0; Plant response rating, Blackgrass [13]: 0; Blackgrass plant response rating (0 to 100 scale, 0 is no effect, 100 is complete control) [13]: 40; Plant response rating, Barnyardgrass [14]: 0"
O=C1NCC(c2ccc(Cl)cc2)C1C(=O)Nc1cccc(Cl)c1Cl (stereo not drawn) [Compound 221],0,0,0,0,0,0,0,0,0,0,0,0,0,0,0,0,0,0,60,0,"Foxtail, Giant plant response rating (0 to 100 scale, 0 is no effect, 100 is complete control) ([8]; Postemergence, 500 g ai/ha): 30; Plant response rating, Foxtail, Giant [8, 17]: 80; Plant response rating, Wheat [9]: 0; Wheat plant response rating (0 to 100 scale, 0 is no effect, 100 is complete control) [9]: 0; Plant response rating, Barnyardgrass [10, 15]: 0; Plant response rating, Barnyardgrass [10, 16]: 0; Barnyardgrass plant response rating (0 to 100 scale, 0 is no effect, 100 is complete control) ([10]; Postemergence, 500 g ai/ha): 0; Plant response rating, Barnyardgrass [10, 17]: 0; Plant response rating, Pigweed [11, 15]: 0; Plant response rating, Pigweed [11, 16]: 0; Pigweed plant response rating (0 to 100 scale, 0 is no effect, 100 is complete control) ([11]; Postemergence, 500 g ai/ha): 0; Plant response rating, Pigweed [11, 17]: 0; Plant response rating, Sedge, Umbrella [12]: 0; Plant response rating, Blackgrass [13]: 0; Blackgrass plant response rating (0 to 100 scale, 0 is no effect, 100 is complete control) [13]: 0; Plant response rating, Barnyardgrass [14]: 0"
